# System: TCRS containing NIH-3T3 fibroblasts cells
# Test: Detection of cellular translational control activities by TCRS reporter in drug-treated cells
# Format: cell-based
# Conditions: TCRS containing NIH-3T3 fibroblasts treated with drug
# Source text: TCRS functions in cell lines. To examine the applicability of the TCRS in vertebrate cells we introduced the improved TCRS-vector into fibroblasts by transient transfection. […] Importantly, removal of the regulatory uORF by […] point mutation of its translation initiation site results in loss of translational controlled SR protein expression. Accordingly, the TCRS can be used to screen for drugs or to monitor pharmacological effects in tissue culture.
# To examine the potential of the TCRS for detection of changes in translation control activities by external supplied drugs, we treated the TCRS containing NIH-3T3 fibroblasts cells with aminopurine and rapamycin, respectively.
# Treatment with translational active drugs, such as rapamycin or aminopurine, result in differential activation of distinct translation control pathways, causing a shift in reporter protein expression. Shift in reporter expression was also observed with co-transfected expression vectors encoding eucaryotic translation initiation factors eIF2or eIF4E, or mutants thereof. Reporter protein expression shifts were dependent on an intact uORF.
substance,measurement,value
aminopurine,changes of the reporter peptide levels (PR and SR reporter protein expression from TCRS),Differential changes of the peptide levels were observed
